Reference: publication PMC12147445, “Dual-Active Nanoimmunomodulators for the Synergistic Enhancement of the Antitumor Efficacy of Photodynamic Immunotherapy” (Biomaterials Research, 2025)

Key:
CT26 subcutaneous tumor = assay: Tumor growth inhibition, CT26 subcutaneous tumor model; type: in vivo, BALB/c female mice; details: for antitumor effect (tumor size, volume, weight), no light: MAC 2.0 mg/kg, PIX 1.8 mg/kg, tail vein every 2 d x5, n = 5
Procedure: (§1) CT26 cells were inoculated on the back of BALB/c female mice to construct a subcutaneous tumor model (Fig. S2A). The groups were treated as follows (the same groupings as below): MAC (2.0 mg/kg), CPP (PIX content of 1.8 mg/kg), and CPPM (PIX and MAC contents of 1.8 and 2.0 mg/kg, respectively) were injected separately through the tail vein, and the light group was irradiated using a laser for 6 h after drug administration for 10 min (intensity of 50% and power of 0.68 W). The mice were treated every 2 d for a total of 5 treatments, and tumor volume and body weight were measured every other day. On day 18, the mice were executed by cervical dislocation, and their blood was removed and dissected. The spleens of the mice were weighed, and the mouse tumor tissues were stained for Ki67, terminal deoxynucleotidyl transferase dUTP nick end labeling (TUNEL), and CD3/CD8. Different concentrations of CPPM solutions were prepared with saline; 100 μl of CPPM solution was added into 2 ml of mouse blood and mixed well and incubated in a 37 °C water bath for 1 h. After centrifugation, 100 μl of the supernatant was taken into a 96-well plate, and the absorbance value was measured by an enzyme-labeling instrument at a wavelength of 540 nm and the hemolysis rate was calculated. In addition, blood biochemistry and blood routine indexes were analyzed, and hematoxylin–eosin (H&E) staining was performed on tumor tissues and major organs.

CT26 cells [1] = assay: Flow cytometric apoptosis assay; type: cell-based, mouse; details: flow cytometry annexin V-FITC/PI, 6 h incubation; for apoptosis of CT26 cells, dark: no light
Procedure: After the CT26 cells were cultured on the wall, MAC, CPP, and CPPM were added and incubated for 6 h, and the light group was light-exposed for 5 min, respectively. After the cells were washed, 1× annexin V–FITC (195 μl), annexin V–FITC (5 μl), and PI staining solution (10 μl) were added, respectively, and the reaction was detected by flow cytometry after 10 to 15 min. The concentrations of PIX and MAC in CPPM were […] and 3.3 μg/l, respectively.

CT26 cells [2] = assay: Cytotoxicity test by the MTT method; type: cell-based, mouse; details: for cytotoxicity (MTT), dark: CT26, no light, highest PIX 6 μg/ml and MAC 6.72 μg/ml, 6 h + 24 h
Procedure: CT26 cells were seeded into 96-well plates, and materials with different concentration gradients were prepared. Different materials were added into 96-well plates at 100 μl per well according to the concentration gradient, respectively. The highest concentration of PIX in CPP was 6 μg/ml. The highest concentrations of PIX and MAC in CPPM were 6 and 6.72 μg/ml, respectively. After 6 h of incubation, the CPP light group and CPPM light group were irradiated using infrared light for 3 min, and after 24 h, 20 μl of MTT reagent was added, and the absorbance was detected by an enzyme meter (570 nm) and the cell viability was calculated.

CT26 lung metastasis = assay: In vivo antitumor metastasis study (lung metastasis model); design: species or system BALB/c female mice; details: 10 d of treatment, n = 3
Procedure: The mouse lung metastasis model was established by inoculating CT26 cells on the back of BALB/c female mice and injecting 2 × 10^6 CT26 cells labeled using green fluorescent protein through the tail vein when the tumor volume of the loaded mice reached 100 mm^3 (Fig. S2C). The groups were treated in the same manner as those in the immune response study. The mice were executed after 10 d of treatment, and the lung tissues of the mice were excised and photographed, and the metastatic lung nodules were quantified and H&E-stained for further examination of the extent of lung metastasis.

[3] = Blood routine examination; type: in vivo, BALB/c female mice; details: CT26 tumor mice, i.v. every 2 d x5, day 18, no light, mean ± SD
Procedure: as §1

[4] = In vitro 1O2 assay (Singlet Oxygen Sensor Green); type: physicochemical; details: PBS, SOSG probe, 630-nm laser, measured every 15 s
Procedure: To further explore the ROS-producing behavior of CPPM, MAC, CPP, and CPPM were prepared into 1-ml solutions with phosphate-buffered saline, and 10 μl of reactive oxygen Singlet Oxygen Sensor Green probe was added to each set of solutions. The resulting fluorescence intensity was measured as F0 in an F-302 model fluorescence spectrophotometer (excitation wavelength of 488.0 nm, wavelength range of 500.0 to 550.0 nm), and the fluorescence intensity was measured as Ft under 630-nm laser irradiation every 15 s. The concentration of PIX in CPP was 3 μg/l. The concentrations of PIX and MAC in CPPM were 3 and 3.3 μg/l, respectively.

CT26 cells [5] = assay: Intracellular ROS detection (DCFH-DA probe); type: cell-based, mouse; details: CT26, 6 h incubation
Procedure: The CT26 cells were incubated for 6 h with the addition of MAC, CPP, and CPPM materials, respectively, after wall culture. Subsequently, a 2,7-dichlorodihydrofluorescein diacetate probe was added to stain the cells for 30 min, and the CPP light group and CPPM light group were illuminated for 3 min, and the cells were observed and analyzed by microscopy. The experimental groupings were (the same groupings as below): blank group (blank), MAC group (MAC), CPP group (CPP), CPP light exposure group (CPP+), CPPM group (CPPM), and CPPM light exposure group (CPPM+). The concentration of PIX in CPP was 6 μg/l. The concentrations of PIX and MAC in CPPM were 6 and 6.72 μg/l, respectively.

[6] = Drug content / loading efficiency (PIX by UV-Vis, MAC by HPLC); type: physicochemical; details: UV-Vis at 630 nm, sample diluted to 1 mg/ml
Procedure: CPP and CPPM were diluted to 1 mg/ml each. MAC was quantified by HPLC with a mobile phase A of water (0.2% TFA), a mobile phase B of acetonitrile, a flow rate of 1 ml/min, and a gradient elution of 10% to 100% B. The peak area of different concentrations of MAC was tested at 277 nm out, and the standard curve was plotted and the drug concentration was tested. PIX was quantified by ultraviolet–visible absorption spectrometry (UV–Vis), and the absorption values of different concentrations of PIX were determined at 630 nm, and the standard curve was plotted and the concentration of PIX was tested. Subsequently, the drug release profiles were determined by HPLC in release media at potential of hydrogen (pH) 5.3 and 7.4.

CT26 cells [7] = assay: ICD immunofluorescence assay (CRT, HMGB1); type: cell-based, mouse; details: CT26, PIX 6 μg/ml, MAC 6.72 μg/ml, 630 nm 29.8 mW cm^-2 10 min
Procedure: MAC, CPP, and CPPM were added to CT26 cells, and the light group was incubated for 6 h and then irradiated with light-emitting diode light (630 nm, 29.8 mW cm^−2) for 10 min. After continuing incubation for 4 h, paraformaldehyde (4%) and 0.1% Triton X-100 were added for fixation and permeabilization of cells, respectively. Subsequently, the cells were incubated with CRT or HMGB1 fluorescent primary antibody overnight ([…]), secondary antibody for 1 h, and DAPI for 20 min and then observed by microscopy. The PIX concentration was 6 μg/ml, and the MAC concentration was 6.72 μg/ml.

CCCNS(=O)(=O)Nc1ncnc(OCCOc2ncc(Br)cn2)c1-c1ccc(Br)cc1 [MAC, Macitentan, reference compound]
antitumor effect (tumor size, volume, weight), no light (CT26 subcutaneous tumor): low antitumor properties
apoptosis of CT26 cells, dark (CT26 cells [1]): lower apoptosis rates
cytotoxicity (MTT), dark (CT26 cells [2]): no significant toxic effects
lung metastasis, no light (CT26 lung metastasis): lung metastasis obviously occurred
PCT [3]: 0.21 ± 0.06%
PDW [3]: 17.89 ± 0.54
Mon ([3]; reference 0.00–0.30): 5.54 ± 1.77 10^9/l
Gran ([3]; reference 0.10–1.80): 116.23 ± 32.29 10^9/l
Lymph ([3]; reference 0.70–5.70): 24.74 ± 5.26 10^9/l
WBC ([3]; reference 0.80–6.80): 132.48 ± 37.09 10^9/l
RBC ([3]; reference 6.36–9.42): 7.82 ± 0.54 10^12/l
RDW ([3]; reference 13.00–17.00): 14.91 ± 0.48%
MCH ([3]; reference 15.80–19.00): 16.61 ± 1.12 pg
HCT ([3]; reference 34.60–44.60): 37.4 ± 2.73%
HCV ([3]; reference 48.20–58.30): 52.75 ± 2.51 fL
HGB ([3]; reference 110.00–143.00): 115.11 ± 15.08 g/L
MCHC ([3]; reference 302.00–353.00): 318.78 ± 20.68 g/L

C (PEG5000-Mal)-VRARTR-PIX [CPP, PEG5000-Mal assembled with CP; CPP+ is the light exposure group]
1O2 generation [4]: could produce ^1O2 under light conditions
intracellular ROS, light (CT26 cells [5]; light 3 min): showed green fluorescence
intracellular ROS, dark (CT26 cells [5]; no light): did not produce ROS
loading efficiency of PIX [6]: 12.09%
antitumor effect (tumor size, volume, weight), no light (CT26 subcutaneous tumor): low antitumor properties
antitumor effect (tumor size, volume, weight), light (CT26 subcutaneous tumor; PIX 1.8 mg/kg (MAC 2.0 mg/kg), tail vein every 2 d x5, laser 10 min 6 h after dosing, n = 5): able to inhibit tumor growth
apoptosis of CT26 cells, light (CT26 cells [1]; light 5 min): significantly higher
apoptosis of CT26 cells, dark (CT26 cells [1]): lower apoptosis rates
cytotoxicity (MTT), light (CT26 cells [2]; CT26, 6 h incubation then light 3 min, 24 h, highest PIX 6 μg/ml): stronger cytotoxicity
cytotoxicity (MTT), dark (CT26 cells [2]): no significant toxic effects
CRT expression on the cell membrane under PDT (CT26 cells [7]): increase the expression of CRT on the cell membrane
HMGB1 in tumor cells under PDT (CT26 cells [7]): significantly attenuated
lung metastasis, light (CT26 lung metastasis; laser): a few lung metastases were visible
lung metastasis, no light (CT26 lung metastasis): lung metastasis obviously occurred
